In patent publication US10597392B2, “Tetrahydropyridopyrazines as modulators of GPR6” (Takeda Pharmaceutical Corporation Limited, priority 2014, dated 2020):
pEC50: −log10 of the molar value.

Test system: Haloperidol-Induced Catalepsy
Test: Haloperidol-Induced Catalepsy, In Vivo Rodent Parkinson's Disease Model
Conditions: Rat, dose 1 mg/kg, sc
Description: Haloperidol-Induced Catalepsy—In Vivo Rodent Parkinson's Disease Model
The motor symptoms of Parkinson's disease include akinesia, bradykinesia, rigidity, tremor and postural abnormalities and are associated with the loss of nigral dopaminergic cells and a decline in striatal dopamine levels. Administration of haloperidol to rodents leads to a transient parkinsonian-like state that is reversed by the administration of L-Dopa (Duty, S.; Jenner, P. Br. J. Pharmacol. (2011), 164, 1357-1391) and other drugs that have been clinically validated for the treatment of Parkinson's disease. Haloperidol antagonizes dopamine D2 and, to a lesser extent, D1 receptors in medium spiny neurons that comprise the indirect and direct pathways of the motor circuit respectively. The resultant block of striatal dopamine transmission results in abnormal downstream firing within the basal ganglia circuits that is manifest as symptoms of muscle rigidity and catalepsy. Catalepsy has been postulated to reflect the clinical features of Parkinson's disease, whereby patients experience an inability of to initiate movements.
Male Sprague-Dawley rats (Charles River, Calco, Italy) weighing 175-200 g are used. Alternatively, male C57Bl6 mice weighing 25-35 g were used. The cataleptic state was induced by the subcutaneous administration of the dopamine receptor antagonist haloperidol (0.3 mg/kg, sc), 90 min before testing the animals on the vertical grid test. […] The time span from placement of the paws until the first complete removal of one paw (descent latency) was measured maximally for 120 sec for rats. For mice, the front paws of a mouse was placed on a horizontal metal bar raised 2″ above a Plexiglas platform and time was recorded for up to 30 seconds per trial. […]
Catalepsy was measured 30 min, […], and/or […] after dosing the subjects a 1.0 mg/kg i.p. dose of haloperidol along with the GPR6 modulator test compound. Test compound plasma and brain levels were determined by collected tissue samples at the end of the experiment, which was either at the 120 or 240 min time point. […]

Question: Which “% reversal at 90 min” value does the source give for `Cc1cc2nc(NC3CC3)c(N3CCN(Cc4ccc(F)cc4F)CC3)nc2cn1` [Example 7, N-cyclopropyl-3-(4-(2,4-difluorobenzyl)piperazin-1-yl)-7-methylpyrido[3,4-b]pyrazin-2-amine] here?
Answer: Its value is 33.5%.

Same assay, conditions: Rat, dose 10 mg/kg, sc

Question: For `Cc1cc2nc(NC3CC3)c(N3CCN(Cc4ccc(F)cc4F)CC3)nc2cn1` [Example 7, N-cyclopropyl-3-(4-(2,4-difluorobenzyl)piperazin-1-yl)-7-methylpyrido[3,4-b]pyrazin-2-amine], which “% reversal at 90 min” value is on record?
Answer: Its value is 63.6%.

Same assay, conditions: Rat, dose 30 mg/kg, sc

Question: Which “% reversal at 90 min” value does the source give for `Cc1cc2nc(NC3CC3)c(N3CCN(Cc4ccc(F)cc4F)CC3)nc2cn1` [Example 7, N-cyclopropyl-3-(4-(2,4-difluorobenzyl)piperazin-1-yl)-7-methylpyrido[3,4-b]pyrazin-2-amine] here?
Answer: Its value is 42.8%.

Molecular target: T1, GPR6 receptor expressed in CHO-K1 cells (Homo sapiens, UniProt P46095)
T1 construct: expressed in transfected cells
Test: Inhibition of cAMP Activity of GPR6 In Vitro Assay
Format: cell-based
Conditions: inhibition of constitutive cAMP activity of GPR6 in CHO-K1 cells, 45 min incubation, HTRF cAMP detection
Protocol: Inhibition of cAMP Activity of GPR6 In Vitro Assay
This cell based assay measures the ability of compounds to inhibit the constitutive cAMP activity of GPR6 receptor expressed in CHO-K1 cells. CHO cells were stably expressed with GPR6 receptor, whose expression is controlled by a tetracycline inducable element. The cells were cultured in medium containing F12K, 10% FBS, 1% Penn/Strep, 200 ug/mL Hygromycin. GPR6 receptor expression was induced for 20 hrs with 2 µg/ml doxycycline (sigma D9891) in growth media. After addition of doxycycline cells were plated at a density of 450-750 cells per well in 96-well half-volume black tissue culture plates (Costar) and placed in an incubator (37°, 5% CO2) for 20 hours prior to cAMP assays.
Culture media was removed from cells and they were washed with 50 µL/well of Ringer's Buffer (MgCl2 0.047 mg/mL, NaH2PO4 0.18 mg/mL, Na2HPO4 0.1 mg/mL, KCl 0.34 mg/mL, NaHCO3 1.26 mg/mL, D-glucose 1.8 mg/mL, NaCl 7 mg/mL; pH=7.4). Compounds suspended in DMSO were diluted in Ringer's Buffer containing 0.5% fatty acid free BSA plus 300 μM IBMX and incubated on cells for 45 min at 37° and 5% CO2. After incubation cells were incubated for 10 min at room temp with Eu-cAMP tracer solution from a Perkin Elmer Lance HTRF Ultra cAMP assay kit (TRF0263). Then ULight™-anti-cAMP solution from the Lance HTRF kit was added and incubated on a shaker at room temp for 1 hour prior to HTRF detection in a Perkin Elmer Envision plate reader.
IC50 curves were generated with a four-parameter logistic equation using GraphPad Prism 5.03.

T1 sequence (P46095 whole entry): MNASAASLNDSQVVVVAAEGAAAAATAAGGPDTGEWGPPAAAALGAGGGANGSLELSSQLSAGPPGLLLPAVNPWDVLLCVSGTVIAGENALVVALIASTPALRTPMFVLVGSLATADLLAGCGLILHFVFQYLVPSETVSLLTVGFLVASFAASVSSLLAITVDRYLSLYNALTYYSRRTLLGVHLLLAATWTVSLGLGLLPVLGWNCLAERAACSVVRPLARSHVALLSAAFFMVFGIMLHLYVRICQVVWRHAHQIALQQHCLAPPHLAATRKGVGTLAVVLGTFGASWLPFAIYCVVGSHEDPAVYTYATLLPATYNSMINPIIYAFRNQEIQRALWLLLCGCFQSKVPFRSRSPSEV

Question: `Cc1cc2nc(N3CCN(Cc4ccc(OC(F)F)cc4F)CC3)c(NC(C)C)nc2cn1` [Example 46, 2-(4-(4-(difluoromethoxy)-2-fluorobenzyl)piperazin-1-yl)-N-isopropyl-7-methylpyrido[3,4-b]pyrazin-3-amine] was tested. Which pEC50 did it give?
Answer: Its pEC50 is under 6.00.

Question: With `Cc1cc2nc(N3CCC(Oc4ccc(F)cc4F)CC3)c(NC3CC3)nc2cn1` [Example 34, N-cyclopropyl-2-(4-(2,4-difluorophenoxy)piperidin-1-yl)-7-methylpyrido[3,4-b]pyrazin-3-amine] as the compound, how does the pEC50 read?
Answer: Its pEC50 is 7.02.

Question: With `Cc1cc2nc(N3CCC(Oc4ccc(F)cc4F)CC3)c(NC(C)C)nc2cn1` [Example 35, 2-(4-(2,4-difluorophenoxy)piperidin-1-yl)-N-isopropyl-7-methylpyrido[3,4-b]pyrazin-3-amine] as the compound, how does the pEC50 read?
Answer: Its pEC50 is 7.18.

Question: How did the pEC50 turn out when `Cc1cc2nc(NC3COC3)c(N3CCN(Cc4ccc(F)cc4F)CC3)nc2cn1` [Example 15, 3-(4-(2,4-difluorobenzyl)piperazin-1-yl)-7-methyl-N-(oxetan-3-yl)pyrido[3,4-b]pyrazin-2-amine] was run?
Answer: Its pEC50 is 7.66.

Question: `Cc1cc2nc(N[C@H]3C[C@@H](O)C3)c(N3CCC(Oc4ccc(F)cc4F)CC3)nc2cn1` [Example 9, cis-3-((3-(4-(2,4-difluorophenoxy)piperidin-1-yl)-7-methylpyrido[3,4-b]pyrazin-2-yl)amino)cyclobutanol] was tested. Which pEC50 did it give?
Answer: The pEC50 was 7.28.

Question: How did the pEC50 turn out when `COc1ccc(CN2CCN(c3nc4cnc(C)cc4nc3NC3CC3)CC2)c(F)c1` [Example 23, N-cyclopropyl-3-(4-(2-fluoro-4-methoxybenzyl)piperazin-1-yl)-7-methylpyrido[3,4-b]pyrazin-2-amine] was run?
Answer: The pEC50 was 6.80.

Question: How did the pEC50 turn out when `COc1ccc(CN2CCN(c3nc4cc(C)ncc4nc3NC(C)C)CC2)c(F)c1` [Example 42, 2-(4-(2-fluoro-4-methoxybenzyl)piperazin-1-yl)-N-isopropyl-7-methylpyrido[3,4-b]pyrazin-3-amine] was run?
Answer: Its pEC50 is 6.56.

Question: How did the pEC50 turn out when `COc1ccc(CN2CCN(c3nc4cc(C)ncc4nc3NC3CC3)CC2)c(F)c1` [Example 43, N-cyclopropyl-2-(4-(2-fluoro-4-methoxybenzyl)piperazin-1-yl)-7-methylpyrido[3,4-b]pyrazin-3-amine] was run?
Answer: The pEC50 was under 6.00.

Question: `Cc1cc2nc(N3CCN(Cc4ccc(F)cc4F)CC3)c(NC(C)C)nc2cn1` [Example 30, 2-(4-(2,4-difluorobenzyl)piperazin-1-yl)-N-isopropyl-7-methylpyrido[3,4-b]pyrazin-3-amine 2,2,2-trifluoroacetate] was tested. Which pEC50 did it give?
Answer: Its pEC50 is 7.10.

Question: `Cc1cc2nc(NC(C)C)c(N3CCC(Oc4ccc(OC(F)F)cc4F)CC3)nc2cn1` [Example 18, 3-(4-(4-(difluoromethoxy)-2-fluorophenoxy)piperidin-1-yl)-N-isopropyl-7-methylpyrido[3,4-b]pyrazin-2-amine] was tested. Which pEC50 did it give?
Answer: Its pEC50 is 7.40.

Question: `Cc1cc2nc(N3CCC(Oc4ccc(OC(F)F)cc4F)CC3)c(N[C@H]3CCOC3)nc2cn1` [Example 41, (S)-2-(4-(4-(difluoromethoxy)-2-fluorophenoxy)piperidin-1-yl)-7-methyl-N-(tetrahydrofuran-3-yl)pyrido[3,4-b]pyrazin-3-amine] was tested. Which pEC50 did it give?
Answer: Its pEC50 is under 6.00.

Question: How did the pEC50 turn out when `Cc1cc2nc(N3CCC(Oc4ccc(F)cc4F)CC3)c(N[C@@H]3CCOC3)nc2cn1` [Example 36] was run?
Answer: The pEC50 was 7.12.

Question: How did the pEC50 turn out when `Cc1cc2nc(N3CCC(Oc4ccc(OC(F)F)cc4F)CC3)c(NC(C)C)nc2cn1` [Example 38, 2-(4-(4-(difluoromethoxy)-2-fluorophenoxy)piperidin-1-yl)-N-isopropyl-7-methylpyrido[3,4-b]pyrazin-3-amine] was run?
Answer: The pEC50 was 6.51.

Question: How did the pEC50 turn out when `Cc1cc2nc(NC(C)C)c(N3CCN(Cc4ccc(OC(F)F)cc4F)CC3)nc2cn1` [Example 26, 3-(4-(4-(difluoromethoxy)-2-fluorobenzyl)piperazin-1-yl)-N-isopropyl-7-methylpyrido[3,4-b]pyrazin-2-amine] was run?
Answer: The pEC50 was 6.33.

Question: `Cc1cc2nc(NC(C)C)c(N3CCC(Oc4ccc(F)cc4F)CC3)nc2cn1` [Example 2, 3-(4-(2,4-difluorophenoxy)piperidin-1-yl)-N-isopropyl-7-methylpyrido[3,4-b]pyrazin-2-amine] was tested. Which pEC50 did it give?
Answer: Its pEC50 is 7.78.
